Source: US9481676B2, “Azepino[4,5-B]indoles and methods of use” (Medivation Technologies, Inc., priority 2008, dated 2016)

Biological target: T1, human recombinant adrenergic α2B receptor (Homo sapiens, UniProt P18089)
T1 construct: expressed in transfected cells; host or cells: CHO-K1 cells
T1 sequence (P18089 1-450): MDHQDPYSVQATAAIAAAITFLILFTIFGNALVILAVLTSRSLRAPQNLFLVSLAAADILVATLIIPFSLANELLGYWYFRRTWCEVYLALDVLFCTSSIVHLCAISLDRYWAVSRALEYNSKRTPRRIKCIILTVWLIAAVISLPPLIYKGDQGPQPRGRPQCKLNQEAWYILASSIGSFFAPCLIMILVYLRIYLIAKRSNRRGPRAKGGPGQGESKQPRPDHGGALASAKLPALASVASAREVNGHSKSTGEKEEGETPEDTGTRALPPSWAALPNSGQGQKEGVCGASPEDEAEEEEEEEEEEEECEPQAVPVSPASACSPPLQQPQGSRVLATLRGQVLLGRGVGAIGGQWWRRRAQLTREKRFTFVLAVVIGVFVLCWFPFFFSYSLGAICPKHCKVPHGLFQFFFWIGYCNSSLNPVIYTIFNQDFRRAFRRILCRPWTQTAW
Assay: Adrenergic alpha2B radioligand binding ([3H]Rauwolscine)
Conditions: compound at 1 μM; read-out: Adrenergic (1 μM) α2B, percent inhibition of specific binding
Experimental: To evaluate in radioligand binding assays the activity of compounds of the invention, human recombinant adrenergic α2B receptor expressed in Chinese hamster ovary (CHO-K1) cells (Uhlen S et al. Eur J. Pharmacol. 343(1):93, 1998) in a modified Tris-HCl buffer (50 mM Tris-HCl, pH 7.4, 12.5 mM MgCl2, 1 mM EDTA, 0.2% BSA) was used. Compounds of the invention were incubated with 2.5 nM [^3H]Rauwolscine for 60 min. at 25° C. Non-specific binding was estimated in the presence of 10 μM Prozosin. Receptor proteins were filtered and washed, the filters were then counted to determine [^3H]Rauwolscine specifically bound. Compounds were screened at 1 μM or lower, using 1% DMSO as vehicle. Biochemical assay results are presented as the percent inhibition of specific binding in Table 5.

SMILES	inhibition at 1 µM
Cc1ccc2c(c1)c1c(n2CCc2ccccc2Cl)CCN(C)CC1 [Compound No. 69, 6-(2-chlorophenethyl)-1,2,3,4,5,6-hexahydro-3,9-dimethylazepino[4,5-b]indole]	-4%
CN1CCc2c(n(CC(=O)N3CCNCC3)c3ccc(Cl)cc23)CC1 [Compound No. 72, 2-(9-chloro-2,3,4,5-tetrahydro-3-methylazepino[4,5-b]indol-6(1H)-yl)-1-(piperazin-1-yl)ethanone]	7%
CN1CCc2c(n(CC(=O)Nc3ccccc3)c3ccc(Cl)cc23)CC1 [Compound No. 73, 2-(9-chloro-2,3,4,5-tetrahydro-3-methylazepino[4,5-b]indol-6(1H)-yl)-N-phenylacetamide]	21%
CN1CCc2c(n(CC(=O)N(C)C3CCCCC3)c3ccc(Cl)cc23)CC1 [Compound No. 74, 2-(9-chloro-2,3,4,5-tetrahydro-3-methylazepino[4,5-b]indol-6(1H)-yl)-N-cyclohexyl-N-methylacetamide]	27%
CN1CCc2c(n(CC(=O)OCc3ccccc3)c3ccc(Cl)cc23)CC1 [Compound No. 75, Benzyl-2-(9-chloro-2,3,4,5-tetrahydro-3-methylazepino[4,5-b]indol-6(1H)-yl)acetate]	21%
Cc1ccc2c(c1)c1c(n2/C=C/c2ccccc2)CCN(C)CC1 [Compound No. 229, (E)-3,9-dimethyl-6-styryl-1,2,3,4,5,6-hexahydroazepino[4,5-b]indole]	103%
COc1ccc(/C=C/n2c3c(c4cc(C)ccc42)CCN(C)CC3)c(F)c1 [Compound No. 230, (E)-6-(2-fluoro-4-methoxystyryl)-3,9-dimethyl-1,2,3,4,5,6-hexahydroazepino[4,5-b]indole]	99%
Cc1ccc2c(c1)c1c(n2CC(=O)N(C)C2CCCCC2)CCN(C)CC1 [Compound No. 232, N-cyclohexyl-2-(3,9-dimethyl-2,3,4,5-tetrahydroazepino[4,5-b]indol-6(1H)-yl)-N-methylacetamide]	39%
Cc1ccc2c(c1)c1c(n2/C=C/c2ccccc2F)CCN(C)CC1 [Compound No. 233, (E)-6-(2-fluorostyryl)-3,9-dimethyl-1,2,3,4,5,6-hexahydroazepino[4,5-b]indole]	100%
CN1CCc2c(n(/C=C/c3ccc(F)cc3)c3ccc(Cl)cc23)CC1 [Compound No. 234, (E)-9-chloro-6-(4-fluorostyryl)-3-methyl-1,2,3,4,5,6-hexahydroazepino[4,5-b]indole]	100%
Cc1ccc2c(c1)c1c(n2/C=C/c2ccc(Cl)cc2)CCN(C)CC1 [Compound No. 235, (E)-6-(4-chlorostyryl)-3,9-dimethyl-1,2,3,4,5,6-hexahydroazepino[4,5-b]indole]	98%
CN1CCc2c(n(/C=C/c3ccc(F)c(F)c3)c3ccc(Cl)cc23)CC1 [Compound No. 236, (E)-9-chloro-6-(3,4-difluorostyryl)-3-methyl-1,2,3,4,5,6-hexahydroazepino[4,5-b]indole]	103%
CN1CCc2c(n(CCc3ccccc3F)c3ccccc23)CC1 [Compound No. 237, 6-(2-fluorophenethyl)-3-methyl-1,2,3,4,5,6-hexahydroazepino[4,5-b]indole]	93%
C/C(=C\n1c2c(c3cc(C)ccc31)CCN(C)CC2)c1ccc(Cl)cc1Cl [Compound No. 238, (E)-6-(2-(2,4-dichlorophenyl)prop-1-enyl)-3,9-dimethyl-1,2,3,4,5,6-hexahydroazepino[4,5-b]indole]	103%
C/C(=C\n1c2c(c3cc(Cl)ccc31)CCN(C)CC2)c1ccc(Cl)cc1Cl [Compound No. 239, (E)-9-chloro-6-(2-(2,4-dichlorophenyl)prop-1-enyl)-3-methyl-1,2,3,4,5,6-hexahydroazepino[4,5-b]indole]	107%
CN1CCc2c(n(C#Cc3ccc(F)cc3)c3ccc(Cl)cc23)CC1 [Compound No. 281, 9-chloro-6-((4-fluorophenyl)ethynyl)-3-methyl-1,2,3,4,5,6-hexahydroazepino[4,5-b]indole]	99%
CN1CCc2c(n(C#Cc3ccc(Cl)cc3)c3ccc(Cl)cc23)CC1 [Compound No. 282, 9-chloro-6-((4-chlorophenyl)ethynyl)-3-methyl-1,2,3,4,5,6-hexahydroazepino[4,5-b]indole]	102%
Cc1ccc2c(c1)c1c(n2C(=O)Cc2ccc(F)cc2)CCN(C)CC1 [Compound No. 285, 1-(3,9-dimethyl-2,3,4,5-tetrahydroazepino[4,5-b]indol-6(1H)-yl)-2-(4-fluorophenyl) ethanone]	75%
